Data published in US20240400586A1, “HETEROARYL DERIVATIVE PARP INHIBITOR AND USE THEREOF” (HAISCO PHARMACEUTICAL GROUP CO., LTD., priority 2021, published 2024).

What was measured:
PARP-1 enzyme = PARP-1 enzyme (Homo sapiens (Human), UniProt P09874); assay: PARP1 enzyme activity test (BPS Bioscience chemiluminescence kit); format: biochemical
Excerpt: Inhibition %=(1−(RLUsample−RLUmin)/(RLUmax−RLUmin))×100% (formula 1)

[1] = test system: breast tumor cells MDA-MB-436; assay: MDA-MB-436 cell activity test (CellTiter-Glo, 7 days); format: cell-based; settings: Homo sapiens, MDA-MB-436, 168 h, 7 days incubation; for inhibition at 10 µM: read-out: MDA-MB-436 Max inh. % 10 μM; for IC50: read-out: MDA-MB-436 cell inhibitory activity IC50
Description: Breast tumor cells MDA-MB-436 were purchased from ATCC, the culture medium was Leibovitz's L-15+10% FBS, and the cells were cultured in a CO2-free incubator at 37° C. On day 1, the cells in the exponential growth phase were collected, and the cell suspension was adjusted to 4000 cells/135 μL with the culture medium. 135 μL of the cell suspension was added to each well of a 96-well cell culture plate and incubated overnight. On day 2, compounds at different concentrations were added, and the plate was placed in the incubator and incubated for 7 days. After the incubation was completed, according to operation instructions for a CellTiter-Glo kit (Promega, G7573), 75 μL of CTG solution, which was already pre-melted and equilibrated to room temperature, was added to each well, and the mixture was uniformly mixed for 2 min using a microplate shaker. The plate was placed at room temperature for 10 min, and then […] were measured using an Envision2104 plate reader (PerkinElmer). The inhibition rate was calculated using formula (1), where RLUcompound was the readout of the drug treated group, RLUcontrol was the average value of the vehicle control group, and RLUblank was the average value of the cell-free well. The IC50 value was calculated using GraphPad Prism software.

Chain of PARP-1 enzyme (P09874 whole entry): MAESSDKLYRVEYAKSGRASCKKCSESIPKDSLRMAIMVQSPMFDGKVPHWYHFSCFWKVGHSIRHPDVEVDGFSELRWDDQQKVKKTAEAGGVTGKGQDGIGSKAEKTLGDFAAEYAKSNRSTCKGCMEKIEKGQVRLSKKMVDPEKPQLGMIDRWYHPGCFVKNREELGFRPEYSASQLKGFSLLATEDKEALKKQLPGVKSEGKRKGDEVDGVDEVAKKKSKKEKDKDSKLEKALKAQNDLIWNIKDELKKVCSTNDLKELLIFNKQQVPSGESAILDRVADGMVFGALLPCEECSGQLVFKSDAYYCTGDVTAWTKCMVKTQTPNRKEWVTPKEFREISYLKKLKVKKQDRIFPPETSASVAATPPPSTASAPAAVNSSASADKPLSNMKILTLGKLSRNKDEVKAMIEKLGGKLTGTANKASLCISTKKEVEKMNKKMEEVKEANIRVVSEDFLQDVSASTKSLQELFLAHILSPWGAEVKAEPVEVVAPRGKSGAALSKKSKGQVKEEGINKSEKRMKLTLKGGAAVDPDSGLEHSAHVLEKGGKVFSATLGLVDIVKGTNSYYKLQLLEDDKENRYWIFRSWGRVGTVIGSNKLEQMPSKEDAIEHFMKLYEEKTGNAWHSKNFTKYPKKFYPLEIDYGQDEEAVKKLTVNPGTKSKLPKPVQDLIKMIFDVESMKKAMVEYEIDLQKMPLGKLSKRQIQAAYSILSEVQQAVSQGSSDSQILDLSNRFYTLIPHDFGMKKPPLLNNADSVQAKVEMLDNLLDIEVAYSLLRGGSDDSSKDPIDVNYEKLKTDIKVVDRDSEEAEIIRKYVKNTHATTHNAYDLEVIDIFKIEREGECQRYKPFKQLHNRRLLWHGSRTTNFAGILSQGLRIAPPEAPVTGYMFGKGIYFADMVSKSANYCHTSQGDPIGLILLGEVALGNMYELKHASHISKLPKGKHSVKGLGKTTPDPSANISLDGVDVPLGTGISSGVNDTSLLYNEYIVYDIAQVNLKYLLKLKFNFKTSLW

With `CCc1cc2ncc(CN3CCN(c4ccc(NC(=O)[C@H]5CCN(C)C5)nc4)CC3)cc2[nH]c1=O` [Compound 36, (S)—N-(5-(4-((7-ethyl-6-oxo-5,6-dihydro-1,5-naphthyridin-3-yl)methyl)piperazin-1-yl)pyridin-2-yl)-1-methylpyrrolidine-3-carboxamide] the IC50 (PARP-1 enzyme) was 580 pM.

`CCc1cc2ncc(CN3CCN(c4ccc(NC(=O)[C@@H]5C[C@H]5F)nc4)CC3)cc2[nH]c1=O` [Compound 35, (1S,2R)—N-(5-(4-((7-ethyl-6-oxo-5,6-dihydro-1,5-naphthyridin-3-yl)methyl)piperazin-1-yl)pyridin-2-yl)-2-fluorocyclopropane-1-carboxamide] was tested, and the inhibition at 10 µM [1] was 90.4% and the IC50 [1] was 9800 pM.

`CCc1cc2ncc(CN3CCN(c4ccc(C(=O)NCCOC5CC5(F)F)nc4)CC3)cc2[nH]c1=O` (stereo not shown) [Compound 52, N-(2-(2,2-difluorocyclopropoxy)ethyl)-5-(4-((7-ethyl-6-oxo-5,6-dihydro-1,5-naphthyridin-3-yl)methyl)piperazin-1-yl)picolinamide] gave an inhibition at 10 µM [1] of 92.4% and an IC50 [1] of 3100 pM.

In the case of `CCc1cc2ncc(CN3CCN(c4ccc(C(=O)NC5CCN(C)CC5)nc4)CC3)cc2[nH]c1=O` [Compound 17, 5-(4-((7-ethyl-6-oxo-5,6-dihydro-1,5-naphthyridin-3-yl)methyl)piperazin-1-yl)-N-(1-methylpiperidin-4-yl)picolinamide], the IC50 (PARP-1 enzyme) is reported as 350 pM.

`CCc1cc2ncc(CN3CCN(c4ccc5nc(C)nn5c4)CC3)cc2[nH]c1=O` [Compound 31, 3-ethyl-7-((4-(2-methyl-[1,2,4]triazolo[1,5-a]pyridin-6-yl)piperazin-1-yl)methyl)-1,5-naphthyridin-2 (1H)-one] was tested, and the IC50 (PARP-1 enzyme) was 1700 pM.

In the case of `CCc1cc2ncc(CN3CCN(c4ccc(C(=O)N[C@H]5CCNC5)nc4)CC3)cc2[nH]c1=O` [Compound 20, (S)-5-(4-((7-ethyl-6-oxo-5,6-dihydro-1,5-naphthyridin-3-yl)methyl)piperazin-1-yl)-N-(pyrrolidin-3-yl)picolinamide], the IC50 (PARP-1 enzyme) is reported as 320 pM.

`CCc1cc2ncc(CN3CCN(c4ccc(NC(=O)NC)nc4)CC3)cc2[nH]c1=O` [Compound 14, 1-(5-(4-((7-ethyl-6-oxo-5,6-dihydro-1,5-naphthyridin-3-yl)methyl)piperazin-1-yl)pyridin-2-yl)-3-methylurea] was tested, and the IC50 (PARP-1 enzyme) was 710 pM.

`CCc1cc2ncc(CN3CCN(c4ccc(-c5cnn[nH]5)nc4)CC3)cc2[nH]c1=O` [Compound 29, 7-((4-(6-(1H-1,2,3-triazol-5-yl)pyridin-3-yl)piperazin-1-yl)methyl)-3-ethyl-1,5-naphthyridin-2 (1H)-one] was tested, and the IC50 (PARP-1 enzyme) was 450 pM.

`CCc1cc2ncc(CN3CCN(c4ccc(C(=O)NC5CN(c6ccccc6)C5)nc4)CC3)cc2[nH]c1=O` [Compound 46, 5-(4-((7-ethyl-6-oxo-5,6-dihydro-1,5-naphthyridin-3-yl)methyl)piperazin-1-yl)-N-(1-phenylazetidin-3-yl)picolinamide] gave an IC50 (PARP-1 enzyme) of 560 pM.

`CCc1cc2ncc(CN3CCN(c4ccc(C(=O)NC5CCNCC5)nc4)CC3)cc2[nH]c1=O` [Compound 16, 5-(4-((7-ethyl-6-oxo-5,6-dihydro-1,5-naphthyridin-3-yl)methyl)piperazin-1-yl)-N-(piperidin-4-yl)picolinamide] was tested, and the IC50 (PARP-1 enzyme) was 510 pM.

`CCc1cc2ncc(CN3CCN(c4ccc(C(=O)NCCOC5CC5)nc4)CC3)cc2[nH]c1=O` [Compound 53, N-(2-cyclopropoxyethyl)-5-(4-((7-ethyl-6-oxo-5,6-dihydro-1,5-naphthyridin-3-yl)methyl)piperazin-1-yl)picolinamide] was tested, and the inhibition at 10 µM [1] was 90.6% and the IC50 [1] was 2200 pM.

In the case of `CCc1cc2ncc(CN3CCN(c4ccc(NC(=O)[C@H]5C[C@H]5F)nc4)CC3)cc2[nH]c1=O` [Compound 34, (1R,2R)—N-(5-(4-((7-ethyl-6-oxo-5,6-dihydro-1,5-naphthyridin-3-yl)methyl)piperazin-1-yl)pyridin-2-yl)-2-fluorocyclopropane-1-carboxamide], the inhibition at 10 µM [1] is reported as 81.9% and the IC50 [1] is reported as 16500 pM.
